Laboratory results from patent publication US8710079B2, “Quinoline compounds and their use for treating viral infection” (National Health Research Institutes, priority 2010, dated 2014).
Where two headings read alike, the source gives them in different places.

Tests used:
HIV-1 = assay: microbe, parasite or virus in culture; conditions: Human immunodeficiency virus 1, PBMC
Method: Equal amounts of wild-type and mutant viruses were used to infect 5×10^4 peripheral blood mononuclear cells (PBMC) in 1.5 mL medium containing DMSO or various concentrations of a test compound. A half-milliliter of the culture medium was collected from each culture at days 3, 5, and 7. Viral RNA was extracted from the collected culture supernatants and the viral titers (copies/mL) were determined by real-time PCR. The percentage of inhibition was calculated as [100−(VD/VC)]×100%, where VD and VC refer to the virus titers in the presence and absence of the test compound, respectively.

Human rhinovirus 2 = assay: In vitro human rhinovirus 2 neutralization assay, cytopathic effect on RD cells; conditions: Rhinovirus A
Method: (§1) This assay measured the ability of a test compound to inhibit the cytopathic effect induced by a picornavirus (EV71, Coxsackie Virus B3, or human rhinovirus 2) on RD cells. […] More specifically, 96-well tissue culture plates were seeded with 200 μL of RD cells at a concentration of 3×10^5 cells/mL in DMEM with 10% FBS. The plates were incubated for 24-30 h at 37° C. and were used at about 90% confluency. Virus (100 TCID50) mixed with different concentrations of a test compound was added to the cells and incubated at 37° C. for 1 h. After adsorption, the infected cell plates were overlaid with 50 μL of DMEM plus 5% FBS and 2% DMSO. The plate was wrapped in Parafilm and incubated at 37° C. for 64 h. At the end of incubation, the plates were fixed by the addition of 100 μL of 0.5% glutaraldehyde for 1 h at room temperature. After the removal of glutaraldehyde, the plates were stained with 0.1% crystal violet for 15 min at room temperature. The plates were washed and dried, and the density of the well was measured at 570 nm. The concentration required for a test compound to reduce the virus-induced cytopathic effect (CPE) by 50% relative to the virus control is expressed as IC50.

[1] = test system: Influenza A/TW/70066/09 (H1N1); assay: Anti-influenza neutralization test, various influenza virus strains; assay type: cell-based
[2] = test system: Influenza A/TW/147/09 (H1N1); assay: as above; assay type: cell-based
[3] = test system: Influenza A/TW/70058/09 (H1N1); assay: as above; assay type: cell-based
[4] = test system: Influenza A/TW/355/97 (H1N1); assay: as above; assay type: cell-based
Coxsackie B virus 3 = assay: In vitro Coxsackie Virus B3 neutralization assay, cytopathic effect on RD cells
Method: as §1

Enterovirus 71/4643/MP4 = assay: In vitro EV 71 neutralization assay, cytopathic effect on RD cells; conditions: Enterovirus A
Method: as §1

[5] = test system: Influenza A/WSN/33 (H1N1) virus; assay: In vitro anti-influenza virus assay (neutralization test), cytopathic effect on MDCK cells; assay type: cell-based; conditions: 72 h, read-out: IC50 (concentration reducing virus-induced cytopathic effect by 50%)
[6] = 72 h, read-out: Inhibition (%) Day 3
[7] = 120 h, read-out: Inhibition (%) Day 5
[8] = 168 h, read-out: Inhibition (%) Day 7
[9] = Influenza A/WSN/33 (H1N1), MDCK cells
[10] = Influenza A/WSN/33 (H1N1), MDCK cells, lower bound in nM, upper bound in μM

Compound | IC50 [5, 9] [nM] | IC50 [5, 10] [nM] | also measured
Cc1cn([C@H]2C[C@H](N=[N+]=[N-])[C@@H](CO)O2)c(=O)[nH]c1=O [AZT, zidovudine, reference compound] | – | – | inhibition at 0.04 µM (HIV-1; [6]): 30%; inhibition at 0.04 µM (HIV-1; [7]): 60%; inhibition at 0.04 µM (HIV-1; [8]): 67%
NC12CC3CC(CC(C3)C1)C2 [Amantadine] | – | – | IC50 (Human rhinovirus 2): > 25 µM; IC50 [1]: 0.96 ± 0.317 µM; IC50 [2]: 1.47 ± 0.603 µM; IC50 [3]: 0.762 ± 0.28 µM; IC50 [4]: 12.6 ± 6.93 µM; IC50 (Coxsackie B virus 3): > 25 µM; IC50 (Enterovirus 71/4643/MP4): > 25 µM
Cc1c(-c2cc(C(=O)O)c3cc(F)ccc3n2)cnn1-c1ccccc1 [Compound 3] | 1000 to 5900 | – | –
Cc1c(-c2cc(C(=O)O)c3cc(Cl)ccc3n2)cnn1-c1ccccc1 [Compound 4] | – | 10 to 999 | –
Cc1ccc(-n2ncc(-c3cc(C(=O)O)c4cc(Br)ccc4n3)c2C)c(C)c1 [Compound 5] | – | 10 to 999 | –
Cc1c(-c2cc(C(=O)O)c3cc(Br)ccc3n2)cnn1-c1ccc(F)c(F)c1 [Compound 6] | 1000 to 5900 | – | –
COc1ccc(-n2ncc(-c3cc(C(=O)O)c4cc(Br)ccc4n3)c2C)cc1 [Compound 7] | 1000 to 5900 | – | –
Cc1c(-c2cc(C(=O)O)c3cc(Br)ccc3n2)cnn1-c1ccc(Cl)c(Cl)c1 [Compound 8] | 1000 to 5900 | – | –
Cc1ccc(-n2ncc(-c3cc(C(=O)O)c4cc(Br)ccc4n3)c2C)cc1 [Compound 9] | – | 10 to 999 | –
Cc1c(-c2cc(C(=O)O)c3cc(Br)ccc3n2)cnn1-c1ccc(F)cc1 [Compound 10] | – | 10 to 999 | –
Cc1c(-c2cc(C(=O)O)c3cc(Br)ccc3n2)cnn1-c1cccc(F)c1 [Compound 11] | 1000 to 5900 | – | –
Cc1c(-c2cc(C(=O)O)c3cc(Br)ccc3n2)cnn1-c1ccc(Cl)cc1 [Compound 12] | 1000 to 5900 | – | –
Cc1c(-c2cc(C(=O)O)c3cc(Br)ccc3n2)cnn1-c1ccc(C(C)C)cc1 [Compound 13] | – | 10 to 999 | –
Cc1cc(Cl)ccc1-n1ncc(-c2cc(C(=O)O)c3cc(Br)ccc3n2)c1C [Compound 14] | – | 10 to 999 | inhibition at 10 µM (HIV-1; [6]): 20%; inhibition at 0.01 µM (HIV-1; [7]): 48%; inhibition at 10 µM (HIV-1; [7]): 59%; inhibition at 10 µM (HIV-1; [8]): 86%
Cc1cc(C)cc(-n2ncc(-c3cc(C(=O)O)c4cc(Br)ccc4n3)c2C)c1 [Compound 15] | – | 10 to 999 | –
Cc1c(-c2cc(C(=O)O)c3cc(Br)ccc3n2)cnn1-c1ccc([N+](=O)[O-])cc1 [Compound 16] | 1000 to 5900 | – | –
Cc1ccccc1-n1ncc(-c2cc(C(=O)O)c3cc(Br)ccc3n2)c1C [Compound 17] | – | 10 to 999 | –
COc1cccc(-n2ncc(-c3cc(C(=O)O)c4cc(Br)ccc4n3)c2C)c1 [Compound 18] | 1000 to 5900 | – | –
O=C(O)c1cc(-c2cc(-c3ccccc3)no2)nc2ccc(Br)cc12 [Compound 19] | 1000 to 5900 | – | –
Cc1c(-c2cc(C(=O)O)c3cc(Br)ccc3n2)cnn1-c1ccc(Br)cc1 [Compound 20] | – | 10 to 999 | –
Cc1c(-c2cc(C(=O)O)c3cc(Br)ccc3n2)cnn1-c1ccc(F)cc1F [Compound 21] | 1000 to 5900 | – | –
CCCc1cccc(-n2ncc(-c3cc(C(=O)O)c4cc(Br)ccc4n3)c2C)c1 [Compound 22] | – | 10 to 999 | –
Cc1c(-c2cc(C(=O)O)c3cc(Br)ccc3n2)cnn1-c1ccc(C(F)(F)F)cc1 [Compound 23] | 1000 to 5900 | – | –
Cc1c(-c2cc(C(=O)O)c3cc(Br)ccc3n2)cnn1-c1ccccc1F [Compound 24] | – | – | IC50 ([5]; MDCK): 10 to 999 nM
Cc1c(-c2cc(C(=O)O)c3cc(Br)ccc3n2)cnn1-c1cccc(Cl)c1 [Compound 25] | – | – | IC50 ([5]; MDCK): 10 to 999 nM
Cc1cccc(-n2ncc(-c3cc(C(=O)O)c4cc(Br)ccc4n3)c2C)c1 [Compound 26] | – | – | IC50 ([5]; MDCK): 10 to 999 nM
Cc1c(-c2cc(C(=O)O)c3cc(Br)ccc3n2)cnn1-c1ccc(Cl)cc1Cl [Compound 27] | – | – | IC50 ([5]; MDCK): 10 to 999 nM
Cc1c(-c2cc(C(=O)O)c3cc(Br)ccc3n2)cnn1-c1cccc([N+](=O)[O-])c1 [Compound 29] | 6000 to 25000 | – | –

Compound | IC50 [5, 9] [nM] | IC50 [5, 10] [nM] | also measured
Cc1cccc(-n2ncc(-c3cc(C(=O)O)c4cc(Br)ccc4n3)c2C)c1C [Compound 30] | – | 10 to 999 | –
Cc1ccc(Cl)cc1-n1ncc(-c2cc(C(=O)O)c3cc(Br)ccc3n2)c1C [Compound 31] | – | 10 to 999 | –
Cc1ccc(C)c(-n2ncc(-c3cc(C(=O)O)c4cc(Cl)ccc4n3)c2C)c1 [Compound 33] | – | 10 to 999 | –
Cc1ccc(Cl)cc1-n1ncc(-c2cc(C(=O)O)c3cc(Cl)ccc3n2)c1C [Compound 34] | – | 10 to 999 | –
Cc1cccc(C)c1-n1ncc(-c2cc(C(=O)O)c3cc(Br)ccc3n2)c1C [Compound 36] | 1000 to 5900 | – | –
Cc1cc(C)c(-n2ncc(-c3cc(C(=O)O)c4cc(Br)ccc4n3)c2C)c(C)c1 [Compound 37] | 1000 to 5900 | – | –
CCc1ccccc1-n1ncc(-c2cc(C(=O)O)c3cc(Br)ccc3n2)c1C [Compound 38] | 1000 to 5900 | – | –
Cc1c(-c2cc(C(=O)O)c3cc(Br)ccc3n2)cnn1-c1cc(Cl)ccc1Cl [Compound 39] | 6000 to 25000 | – | –
Cc1c(-c2cc(C(=O)O)c3cc(Br)ccc3n2)cnn1-c1cc(F)ccc1F [Compound 40] | 6000 to 25000 | – | –
Cc1c(-c2cc(C(=O)O)c3cc(Br)ccc3n2)cnn1-c1c(Cl)cccc1Cl [Compound 41] | 6000 to 25000 | – | –
Cc1c(-c2cc(C(=O)O)c3cc(Br)ccc3n2)cnn1-c1c(Cl)cc(Cl)cc1Cl [Compound 42] | 1000 to 5900 | – | –
O=C(O)c1cc(-c2cnn(-c3ccccc3)c2)nc2ccc(Br)cc12 [Compound 43] | 6000 to 25000 | – | –
Cc1nc(-c2ccccc2)sc1-c1cc(C(=O)O)c2cc(Br)ccc2n1 [Compound 46] | 1000 to 5900 | – | –
Cn1c(-c2ccccc2)ccc1-c1cc(C(=O)O)c2cc(Br)ccc2n1 [Compound 47] | – | 10 to 999 | –
Cc1c(-c2cc(C(=O)O)c3cc(Br)ccc3n2)ccn1-c1ccccc1 [Compound 48] | 1000 to 5900 | – | –
Cc1c(-c2cc(C(=O)O)c3cc(Br)ccc3n2)noc1-c1ccccc1 [Compound 49] | 1000 to 5900 | – | –
Cc1ccc(C)c(-n2ncc(-c3cc(C(=O)O)c4cc(F)ccc4n3)c2C)c1 [Compound 50] | 1000 to 5900 | – | –
Cc1c(-c2cc(C(=O)O)c3cc(Br)ccc3n2)ncn1-c1ccccc1 [Compound 51] | – | 10 to 999 | –
Cc1c(-c2cc(C(=O)O)c3cc(Br)ccc3n2)cnn1-c1cc(Cl)cc(Cl)c1 [Compound 57] | 1000 to 5900 | – | –
Cc1ccc(C)c(-n2ncc(-c3cc(C(=O)O)c4cc(Br)cc(Br)c4n3)c2C)c1 [Compound 58] | 1000 to 5900 | – | –
Cc1ccc(C)c(-n2ncc(-c3cc(C(=O)O)c4cc(Br)cc(C)c4n3)c2C)c1 [Compound 59] | 1000 to 5900 | – | –
Cc1ccc(C)c(-n2ncc(-c3cc(C(=O)O)c4cc(I)ccc4n3)c2C)c1 [Compound 60] | – | 10 to 999 | –
Cc1cc(-c2cc(C(=O)O)c3cc(Br)ccc3n2)nn1-c1nc2ccccc2s1 [Compound 73] | 1000 to 5900 | – | –
Cc1cc(C(F)(F)F)cc(-n2nc(-c3cc(C(=O)O)c4cc(Br)ccc4n3)cc2C)n1 [Compound 74] | 1000 to 5900 | – | –
Cc1cc(-c2cc(C(=O)O)c3cc(Br)ccc3n2)nn1-c1ccc2ccccc2n1 [Compound 75] | 1000 to 5900 | – | –
Cc1c(-c2ccccc2)cccc1-c1cc(C(=O)O)c2cc(Br)ccc2n1 [Compound 76] | 1000 to 5900 | – | –
CC(=O)N[C@H]1[C@H]([C@H](O)[C@H](O)CO)OC(C(=O)O)=C[C@@H]1N=C(N)N [Relenza, Zanamivir] | – | – | IC50 (Human rhinovirus 2): > 25 µM; IC50 [1]: 0.809 ± 0.15 µM; IC50 [2]: 22.5 ± 3.47 µM; IC50 [3]: 0.86 ± 0.36 µM; IC50 [4]: 1.05 ± 0.458 µM; IC50 (Coxsackie B virus 3): > 25 µM; IC50 (Enterovirus 71/4643/MP4): > 25 µM
